The values below come from US20080306284A1, “Lipase Inhibitors” (priority 2004, published 2008).

For data set [1], the target named is T1, porcine pancreatic lipase (Sus scrofa, UniProt P00591).
T1 construct: purchased Sigma
T1 sequence (P00591 1-450): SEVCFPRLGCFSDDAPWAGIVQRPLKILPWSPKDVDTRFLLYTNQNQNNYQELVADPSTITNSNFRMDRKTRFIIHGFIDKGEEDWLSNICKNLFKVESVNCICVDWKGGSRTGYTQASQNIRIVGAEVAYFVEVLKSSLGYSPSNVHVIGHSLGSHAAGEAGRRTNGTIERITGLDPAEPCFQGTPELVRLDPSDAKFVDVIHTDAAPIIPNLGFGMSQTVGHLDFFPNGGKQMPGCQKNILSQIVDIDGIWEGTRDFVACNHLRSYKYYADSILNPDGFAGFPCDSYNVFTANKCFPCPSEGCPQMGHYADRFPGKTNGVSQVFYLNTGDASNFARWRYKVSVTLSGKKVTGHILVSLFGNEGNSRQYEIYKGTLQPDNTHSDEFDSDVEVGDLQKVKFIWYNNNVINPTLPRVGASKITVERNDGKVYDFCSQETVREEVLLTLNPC
In words: Lipase inhibitory activity assay (4-MUO substrate, fluorescence). In kind it is biochemical. Particulars: for IC50: porcine pancreatic lipase, 4-MUO substrate, 25° C., 30 minutes, pH 8.0. The method, then: A lipase activity assay was performed by using the oleate ester of fluorescent 4-methylumbelliferone (4-MUO) as a substrate to measure the fluorescence of 4-methylumbelliferone produced by reaction.
The buffer used for the assay was 13 mM Tris-HCl (pH 8.0) containing 150 mM NaCl, 1.36 mM CaCl2. The enzyme assay was performed using a 0.1 M solution of the substrate 4-MUO (Sigma) in DMSO diluted 1:1000 in said buffer and a solution of porcine pancreatic lipase (Sigma) prepared at 400 U/ml also in said buffer.
An enzymatic reaction was started by adding 25 μl of the lipase/buffer solution after 50 μl of the 4-MUO/buffer solution and 25 μl of distilled water (or an aqueous solution of each sample) were added and mixed in a 96-well microplate at 25° C. After the reaction was performed for 30 minutes, the reaction was stopped by adding 100 μl of a 0.1 M citrate buffer (pH 4.2) and the fluorescence of 4-methylumbelliferone produced by the reaction (excitation 355 nm, emission 460 nm) was measured using a fluorescence plate reader (Fluoroskan Asent CF from Labsystems).
The inhibitory activity of each test sample was determined as IC50(μM), i.e. the amount of the sample giving 50% inhibition of the activity of the control (distilled water).

The conditions of data set [2]: reported in the literature; cited from earlier work.

In general, IC50 refers to the concentration at which inhibition is half-maximal. In the case of `O=C(O[C@@H]1Cc2c(O)cc(O)c([C@@H]3c4c(O)cc(O)cc4O[C@H](c4cc(O)c(O)c(O)c4)[C@H]3O)c2O[C@@H]1c1cc(O)c(O)c(O)c1)c1cc(O)c(O)c(O)c1` [prodelphinidin B-4 3′-O-gallate (16), prodelphinidin B-4 3′-O-gallate], the midpoint of inhibition in data set [1], the IC50, lay at 223 nM. With `O=C(O[C@@H]1Cc2c(O)cc(O)c([C@H]3c4c(O)cc(O)cc4O[C@H](c4cc(O)c(O)c(O)c4)[C@@H]3O)c2O[C@@H]1c1ccc(O)c(O)c1)c1cc(O)c(O)c(O)c1` [(−)-epigallocatechin (4β − 8) (−)-epicatechin 3-O-gallate], the IC50 in data set [1] was 913 nM. Turning to `O=C(O[C@@H]1Cc2c(O)cc3c(c2O[C@@H]1c1cc(O)c(O)c(O)c1)[C@H]1c2c(O)cc(O)cc2O[C@@](c2cc(O)c(O)c(O)c2)(O3)[C@@H]1O)c1cc(O)c(O)c(O)c1` [prodelphinidin A-2 3′-O-gallate (11), prodelphinidin A-2 3′-O-gallate], inhibition in data set [1] was half-maximal at 171 nM (IC50).

The compound `Oc1cc(O)c2c(c1)OC(c1ccc(O)c(O)c1)C(O)C2` (single isomer, unassigned; (+)) [(+)-catechin (5), (+)-catechin, reference compound] showed an IC50 in data set [1] of over 690000 nM. For the compound `Oc1cc(O)c2c(c1)O[C@H](c1ccc(O)c(O)c1)[C@H](O)[C@H]2c1c(O)cc(O)c2c1O[C@H](c1ccc(O)c(O)c1)[C@H](O)C2` [procyanidin B-2 (9), procyanidin B-2], the half-maximal inhibitory concentration (IC50) in data set [1] was found to be 7960 nM. With `Oc1cc(O)c2c(c1)O[C@H](c1ccc(O)c(O)c1)[C@@H](O)[C@@H]2c1c(O)cc(O)c2c1O[C@H](c1cc(O)c(O)c(O)c1)[C@H](O)C2` [(+)-catechin (4α − 8) (−)-epigallocatechin], half-maximal inhibition in data set [1] (IC50) was put at 7910 nM.

`Oc1cc(O)c2c(c1)O[C@H](c1cc(O)c(O)c(O)c1)[C@@H](O)C2` [(+)-gallocatechin (7), (+)-gallocatechin, reference compound] registered an IC50 in data set [1] of over 163000 nM. Consider `CCCCCCCCCCC[C@@H](C[C@@H]1OC(=O)[C@H]1CCCCCC)OC(=O)[C@H](CC(C)C)NC=O` [Xenical], for which the adverse side effects result in data set [2] was “fatty stools, increased stool frequency, loose stools, diarrhea and abdominal pain”. “(−)-epigallocatechin 3-O-gallate [(−)-epigallocatechin 3-O-gallate (4), reference compound]”: the “lipase inhibitory activity (in words)” value in data set [1] (method of Example 1) is “strongest activity among the major catechins”. In addition, in data set [1], the midpoint of inhibition, the IC50, lay at 284 nM. On to `Oc1cc(O)c2c(c1)O[C@H](c1cc(O)c(O)c(O)c1)[C@@H](O)[C@@H]2c1c(O)cc(O)c2c1O[C@H](c1ccc(O)c(O)c1)[C@H](O)C2` [(+)-gallocatechin (4α − 8) (−)-epicatechin], for which the IC50 in data set [1] is 2860 nM. Same read-out and setting: the value for `O=C(O[C@@H]1Cc2c(O)cc(O)cc2O[C@H]1c1cc(O)c(O)c(O)c1)c1cc(O)c(O)c(O)c1` [(−)-gallocatechin 3-O-gallate (8), (−)-gallocatechin 3-O-gallate, reference compound] was 349 nM.

With `OC1(c2ccc(Cl)cc2)c2ccccc2C2=NCCN21` (stereo not drawn) [Mazindol], in data set [2], the adverse side effects entry is “dry mouth, constipation, stomach discomfort and nausea/vomiting”. For the compound `Oc1cc(O)c2c(c1)O[C@H](c1cc(O)c(O)c(O)c1)[C@@H](O)[C@@H]2c1c(O)cc(O)c2c1O[C@H](c1cc(O)c(O)c(O)c1)[C@H](O)C2` [prodelphinidin B-4 (15), prodelphinidin B-4], in data set [1], inhibition was half-maximal at 6230 nM (IC50). Regarding `Oc1cc(O)c2c(c1)O[C@H](c1ccc(O)c(O)c1)[C@@H](O)[C@@H]2c1c(O)cc(O)c2c1O[C@H](c1ccc(O)c(O)c1)[C@@H](O)C2` [procyanidin B-3 (10), procyanidin B-3], the IC50 in data set [1] was 2940 nM. In data set [1], `O=C(O[C@@H]1Cc2c(O)cc(O)c([C@H]3c4c(O)cc(O)cc4O[C@H](c4ccc(O)c(O)c4)[C@@H]3O)c2O[C@@H]1c1cc(O)c(O)c(O)c1)c1cc(O)c(O)c(O)c1` [(−)-epicatechin (4β − 8) (−)-epigallocatechin 3-O-gallate] registered a half-maximal inhibitory concentration (IC50) of 147 nM.

For `Oc1cc(O)c2c(c1)O[C@H](c1ccc(O)c(O)c1)[C@H](O)C2` [(−)-epicatechin (1), (−)-epicatechin, reference compound], in data set [1], the concentration for half-maximal inhibition (IC50) was over 21600 nM.

In data set [1], prodelphinidin B-5 3,3′-di-O-gallate returned a half-inhibitory concentration (IC50) of 558 nM. In data set [1], `O=C(O[C@@H]1[C@@H](c2c(O)cc(O)c3c2O[C@H](c2ccc(O)c(O)c2)[C@H](OC(=O)c2cc(O)c(O)c(O)c2)C3)c2c(O)cc(O)cc2O[C@@H]1c1cc(O)c(O)c(O)c1)c1cc(O)c(O)c(O)c1` [(−)-epigallocatechin 3-O-gallate (4β − 8) (−)-epicatechin 3-O-gallate] displayed an IC50 of 612 nM. On to `O=C(O[C@@H]1[C@@H](c2c(O)cc(O)c3c2O[C@H](c2cc(O)c(O)c(O)c2)[C@H](OC(=O)c2cc(O)c(O)c(O)c2)C3)c2c(O)cc(O)cc2O[C@@H]1c1cc(O)c(O)c(O)c1)c1cc(O)c(O)c(O)c1` [prodelphinidin B-2 3,3′-di-O-gallate], for which the half-maximal inhibitory concentration (IC50) in data set [1] was determined as 107 nM.

Consider `O=C(O[C@@H]1[C@@H](c2c(O)cc(O)c3c2O[C@H](c2cc(O)c(O)c(O)c2)[C@H](OC(=O)c2cc(O)c(O)c(O)c2)C3)c2c(O)cc(O)cc2O[C@@H]1c1ccc(O)c(O)c1)c1cc(O)c(O)c(O)c1` [(−)-epicatechin 3-O-gallate (4β − 8) (−)-epigallocatechin 3-O-gallate], for which, in data set [1], the concentration for half-maximal inhibition (IC50) worked out at 846 nM. Regarding `Oc1cc(O)c2c(c1)O[C@H](c1cc(O)c(O)c(O)c1)[C@H](O)C2` [(−)-epigallocatechin (3), (−)-epigallocatechin, reference compound], the half-inhibitory concentration (IC50) in data set [1] was over 20400 nM. Compound `O=C(O[C@@H]1Cc2c(O)cc(O)c([C@@H]3c4c(O)cc(O)cc4O[C@H](c4ccc(O)c(O)c4)[C@H]3O)c2O[C@@H]1c1cc(O)c(O)c(O)c1)c1cc(O)c(O)c(O)c1` [(+)-catechin (α + 8) (−)-epigallocatechin 3-O-gallate] came in with an IC50 in data set [1] of 174 nM. The same measure, in the same setting: the value for “(−)-epicatechin 3-O-gallate [(−)-epicatechin 3-O-gallate (2), reference compound]” was 271 nM. Take `Oc1cc(O)c2c(c1)O[C@H](c1cc(O)c(O)c(O)c1)[C@H](O)[C@H]2c1c(O)cc(O)c2c1O[C@H](c1cc(O)c(O)c(O)c1)[C@H](O)C2` [prodelphinidin B-2 (12), prodelphinidin B-2]: it took 2950 nM to reach half-maximal inhibition in data set [1] (IC50).

`O=C(OC1Cc2c(O)cc(O)c(C3c4c(O)cc(O)cc4OC(c4cc(O)c(O)c(O)c4)C3O)c2OC1c1cc(O)c(O)c(O)c1)c1cc(O)c(O)c(O)c1` (stereo not drawn) [prodelphinidin B-2 3′-O-gallate (13), prodelphinidin B-2 3′-O-gallate] showed an IC50 in data set [1] of 1970 nM.

The compound `O=C(O[C@@H]1Cc2c(O)cc(O)cc2O[C@H]1c1ccc(O)c(O)c1)c1cc(O)c(O)c(O)c1` [(−)-catechin 3-O-gallate (6), (−)-catechin 3-O-gallate, reference compound] gave an IC50 in data set [1] of 846 nM.
